Measurements as given in US20110091473A1, “NOVEL ANTIBODY THERAPIES” (GENMAB A/S, priority 2007, published 2011).

Columns and labels:
CD20 mRNA = CD20 mRNA level by RT-PCR in RAJI-CD20high cells; assay type: cell-based, human; details: 10 μM, time course over 48 hours
Description: To analyze whether lovastatin treatment would influence CD20 expression mRNA expression of the target was determined. RAJI-CD20high cells were incubated with either diluent (control) or 10 μM of lovastatin for different time periods (1-48 hours). Cells were washed twice with PBS, pelleted and treated with 1 ml of TRIzol Reagent (Invitrogen) to extract total RNA according to the manufacturer's protocol. RNA concentration was measured with Eppendorf Biophotometer (Eppendorf, Hamburg, Germany). The first strand cDNA synthesis containing 1 μg of total RNA was primed with oligo(dT) using Omniscript RT Kit (Qiagen, Chatsworth, Calif.). Primers used for CD20 PCR amplification were: forward-5′ […]3′ and reverse-5′ […]3′. The cycling conditions in the Mastercycler personal (Eppendorf) consisted of a first step of 94° C. denaturation for 10 minutes, followed by 35 cycles of annealing at 54° C. for 60 sec, extension at 75° C. for 90 sec, and denaturation at 94° C. for 30 sec, with a final elongation step at 75° C. for 10 minutes using HotStart Taq DNA Polymerase (Qiagen). Amplification products were analyzed by 1.5% agarose gel electrophoresis.

[1] = tested on: cell surface proteins on RAJI cells; test: FACS binding of mAbs to cell surface proteins on RAJI cells; assay type: cell-based, human
Description: B cells (either non-treated cells, cholesterol-depleted cells via MβCD or lovastatin, or cholesterol-reconstituted cells) were characterized for quantitative surface expression of the B cell markers CD19, CD20, and CD21, the T-cell marker CD3, complement regulatory proteins CD55 and CD59, and HLA-DR and CD81 by direct immunofluorescence. […] After washing twice with FACS buffer (PBS, 0.1% Bovine Serum Albumine, 0.02% Sodium Azide), the cells were analyzed on a flow cytometer.

RAJI-CD20high cells = test: Rituximab-mediated CDC of RAJI-CD20high cells, MTT assay; assay type: cell-based, human; details: for rituximab-mediated CDC after pre-incubation: Berberine chloride 24 hours or Fillipin III 30 minutes, 10 μg/ml rituximab, 10% serum
Source text: Statins are competitive inhibitors of 3-hydroxy-3-methylglutaryl-coenzyme A reductase (HMG-CoAR). HMG-CoAR is a rate-limiting enzyme of the mevalonate pathway essential for the synthesis of isoprenoid compounds including cholesterol (McTaggart S J (2006) Isoprenylated proteins. Cell Mol Life Sci 63:255-267). By inhibiting HMG-CoAR, statins can lower the cholesterol blood level and extract cholesterol from the cell membrane. To determine the effect of statin-mediated cholesterol depletion on immunotherapy RAJI-CD20high cells were cultured with a concentration range of lovastatin or diluent for 48 hours.
Cell viability was measured in a MTT assay in which 3-(4,5-dimethylthiazol-2-yl)-2,5-diphenyltetrazolium bromide (MTT) solution (5 mg/ml, Roche, Diagnostics, Almere, The Netherlands) was added to each well (flat-bottom microtiter plates; Nunc, Rochester, N.Y.). The reaction was stopped after 4 hours of incubation at 37° C. by the addition of 100 μl of 20% SDS (Roche Diagnostics, Almere, The Netherlands). After overnight incubation at 37° C. the absorbance of the samples was measured at 550-525 nm using an Elisa reader (EL808x, Biotek instruments, Highland park, Vt., USA). Cytotoxicity was expressed as a relative viability of the rituximab-mediated CDC of lovastatin-treated cells compared to cells incubated with medium only and was calculated as follows: relative viability=[(Ae−Ab)/(Ac−Ab)]*100, where Ab is the background absorbance, Ae is experimental absorbance of the lysed cells and Ac is the absorbance of untreated cells. The viability was expressed as percentage survival in comparison to non-cholesterol depleted cells (control).
RAJI-CD20high cells were incubated with diluents (control) or a concentration range of either Fillipin III for 30 minutes or Berberine chloride for 24 hours. […] The cytotoxic effects were measured in a MTT assay. […] After overnight incubation at 37° C. the absorbance of the samples was measured at 550-525 nm using an Elisa reader (EL808x, Biotek instruments, Highland park, Vt., USA). […]

[2] = tested on: CD20 in the plasma membrane; test: CD20 localization in RAJI-CD20high cells (immunofluorescence, surface biotinylation); assay type: cell-based, human
Description: To examine localization of CD20 in RAJI-CD20high cells a double immunofluorescence staining with anti-CD20 mAb directed against an extracellular conformational epitope of CD20, and, after cell permeabilization, with a mAb against a linear epitope in the cytosolic tail of this molecule was performed. Control and lovastatin-pretreated RAJI-CD20high cells were stained in suspension at a density of 5×10^5/ml with FITC-conjugated B9E9 (1:10 in PBS, Immunotech Coulter Company, France) for 30 minutes at room temperature. After washing in PBS (three times), 200 μl of the cell suspension was spun onto a Cytospin slide. The slides were air-dried, acetone-fixed for 15 minutes at room temperature, washed three times with PBS, incubated with anti-CD20 mAb (Novocastra) (1:100 in PBS with 5% normal donkey serum (Jackson)) for 60 minutes at room temperature. The slides were washed three times in PBS and incubated with donkey anti-mouse Alexa555 conjugated antibody (Molecular Probes, CA) (1:200 for 30 minutes at room temperature). The slides were washed, mounted in Vectashield (Vector Laboratories, CA.) and examined by fluorescence microscopy (Leica TCS SP2). […] After five washes, gel-bound complexes were boiled in 2× Laemmli sample buffer and analyzed for CD20 by Western blotting using anti-CD20 mAb (NCL-CD20-L26, Novocastra) as described in Example 8.

CD20 protein = test: Total cellular CD20 protein level by Western blotting in RAJI-CD20high cells; assay type: cell-based, human; details: 5-30 μM, 48 hours
Description: Control cells or cells incubated with 10 μM lovastatin for 48 hours, washed twice with PBS, were pelleted and lysed with radioimmunoprecipitation assay (RIPA) buffer containing Tris base 50 mM, NaCl 150 mM, NP-40 1%, sodium deoxycholate 0.25% and EDTA 1 mM supplemented with Complete® protease inhibitor cocktail tablets (Roche Diagnostics, Mannheim, Germany). Protein concentration was measured using Bio-Rad Protein Assay (BioRad, Hercules, Calif., USA). Equal amounts of whole cell proteins were separated on 12.5% SDS-polyacrylamide gel, transferred onto Protran® nitrocellulose membranes (Schleicher and Schuell BioScience Inc., Keene, N.H.), blocked with TBST (Tris buffered saline (pH 7.4) and 0.05% Tween 20) supplemented with 5% nonfat milk and 5% FBS. The following mAb (at 1:1000 dilution) were used for the overnight incubation: anti-CD20 (NCL-CD20-L26, Novocastra Laboratories Ltd, UK), anti-ICAM-1 (Santa Cruz, Santa Cruz, Calif.). After extensive washing with TBST, the membranes were incubated for 45 minutes with peroxidase conjugated ImmunoPure Goat Anti-Mouse IgG [F(ab′)2] (Jackson ImmunoResearch Laboratories Inc, Pa.). The chemiluminescence reaction for horseradish peroxidase was developed using SuperSignal WestPico Trail Kit® (Pierce, Rockford, Ill.) on a standard x-ray film. […]

human CD20 [3] = target: T1, human CD20 (human, UniProt P11836 1-297); test: flow cytometry, FITC-conjugated antibody on freshly isolated B cells of five patients after 80 mg atorvastatin
T1 sequence (looked up): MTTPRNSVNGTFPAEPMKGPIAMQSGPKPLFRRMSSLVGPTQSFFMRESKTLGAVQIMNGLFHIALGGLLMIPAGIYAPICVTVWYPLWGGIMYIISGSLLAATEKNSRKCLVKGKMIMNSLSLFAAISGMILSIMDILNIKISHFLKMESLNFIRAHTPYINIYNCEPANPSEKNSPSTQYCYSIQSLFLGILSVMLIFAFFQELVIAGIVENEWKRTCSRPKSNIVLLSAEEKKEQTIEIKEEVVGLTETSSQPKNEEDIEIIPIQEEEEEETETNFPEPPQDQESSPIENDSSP
Source text: Informed consent was provided according to the Declaration of Helsinki.

[4] = tested on: CD20 on RAJI-CD20high cells; test: Flow cytometry binding of FITC-conjugated B9E9 to RAJI-CD20high cells; parameters: species or system human; details: Berberine chloride 24 hours; Fillipin III 30 minutes
Description: To deplete cholesterol from the cell membrane, methyl-beta-cyclodextrin (MβCD, Sigma, Zwijndrecht, The Netherlands) was added in varying concentrations to Daudi cells and RAJI-CD20high cells and incubated for 30 minutes at 37° C. under gentle shaking conditions. After incubation the cells were washed twice in PBS and resuspended in test medium to a concentration of 2×10^6 viable cells/ml. MβCD-treated Daudi cells (1×10^5) were incubated with a saturating concentration of FITC-conjugated human anti-CD20 mAb 2F2 or the anti-CD20 mAb B9E9 (Beckman Coulter Inc., Fullerton, Calif.) for 30 minutes at 4° C. After washing twice with FACS buffer (PBS, 0.1% Bovine Serum Albumine, 0.02% Sodium Azide), cells were analyzed on a FACS Calibur (Becton Dickinson, Breda, The Netherlands). […] Binding is expressed as mean fluorescence intensity. […]
To determine the effect of adding cholesterol on CD20 mAb binding, all cell lines (1×10^5) were incubated with a saturating concentration of B9E9 for 30 minutes at 4° C. After washing twice with FACS buffer (PBS, 0.1% Bovine Serum Albumine, 0.02% Sodium Azide), the cells were analyzed on a FACS Calibur (Becton Dickinson, Breda, The Netherlands).
Cholesterol was depleted from the cell membrane of various B cells using varying concentrations of lovastatin (as described in Example 3) and CD20 mAb binding was determined. […]

human CD20 [5] = target: T1, human CD20; test: cell-based or functional assay
[6] = increasing concentrations of MβCD

CC[C@H](C)C(=O)O[C@H]1C[C@@H](C)C=C2C=C[C@H](C)[C@H](CC[C@@H]3C[C@@H](O)CC(=O)O3)[C@H]21 [lovastatin]
mRNA level for CD20 (CD20 mRNA): remained constant
decrease of mAb binding of CD21 ([1]; 10 μM lovastatin): not
mAb binding of CD19 and CD20 ([1]; 10 μM lovastatin): clearly decreased
protection from rituximab-induced CDC (cell viability) (RAJI-CD20high cells; lovastatin concentration range 48 hours, 10% complement active serum): concentration-dependent protection
binding of mAb directed to the extracellular epitope of CD20 ([2]; 48-hour pre-treatment, confocal immunofluorescence): nearly completely abrogated binding
CD20 detectable among biotinylated surface proteins ([2]; treated cells compared with controls): comparable amounts
total cellular CD20 protein level (CD20 protein): did not influence

methyl-beta-cyclodextrin [MβCD]
binding of mAbs against CD19, CD20, CD55, CD59, HLA-DR and CD81 [1, 6]: negatively correlated
mAb binding to CD21 [1, 6]: not affected

CD20 mAb B1 (GlaxoSmithKline) (antibody)
average decrease of the CD20/CD21 MFI ratio, day 3 against day 0 (so in the source) (human CD20 [3]): 96%

Fillipin III
binding of B9E9 to cells treated with cholesterol-modulating drug [4]: not observed
rituximab-mediated CDC after pre-incubation (RAJI-CD20high cells): remained sensitive

COc1ccc2cc3[n+](cc2c1OC)CCc1cc2c(cc1-3)OCO2 [Berberine chloride]
binding of B9E9 to cells treated with cholesterol-modulating drug [4]: impaired binding
rituximab-mediated CDC after pre-incubation (RAJI-CD20high cells): significantly abrogated

B1: rituximab (antibody, V domains shown)
VH: QVQLQQPGAELVKPGASVKMSCKASGYTFTSYNMHWVKQTPGRGLEWIGAIYPGNGDTSYNQKFKGKATLTADKSSSTAYMQLSSLTSEDSAVYYCARSTYYGGDWYFNVWGAGTTVTVSA
VL: QIVLSQSPAILSASPGEKVTMTCRASSSVSYIHWFQQKPGSSPKPWIYATSNLASGVPVRFSGSGSGTSYSLTISRVEAEDAATYYCQQWTSNPPTFGGGTKLEIK
EC50 of rituximab-mediated ADCC, 51Cr release, lovastatin-treated RAJI cells, PBMC effector cells (human CD20 [5]): 0.082 µg/mL
EC50 of rituximab-mediated ADCC, 51Cr release, non-treated RAJI cells, PBMC effector cells (human CD20 [5]): 0.024 µg/mL

B2: CD20 mAb 11B8 (antibody, V domains shown)
VH: EVQLVQSGGGLVHPGGSLRLSCTGSGFTFSYHAMHWVRQAPGKGLEWVSIIGTGGVTYYADSVKGRFTISRDNVKNSLYLQMNSLRAEDMAVYYCARDYYGAGSFYDGLYGMDVWGQGTTVTVSS
VL: EIVLTQSPATLSLSPGERATLSCRASQSVSSYLAWYQQKPGQAPRLLIYDASNRATGIPARFSGSGSGTDFTLTISSLEPEDFAVYYCQQRSDWPLTFGGGTKVEIK
average decrease of the CD20/CD21 MFI ratio, day 3 against day 0 (so in the source) (human CD20 [3]): 84%
